The results in this text go back to patent publication US7297344B1, “Preparations for the promotion of wound healing in the upper respiratory tract and/or ear” (priority 1999, dated 2007).

The series relates to Human ciliated epithelium cells. Kind of series: in-vitro ciliary vibration (ciliary activity) test. The class given is cell-based. The protocol:
The corresponding cells were exposed and incubated with 100 μl test substance at a temperature of 37° C.

Turning to `N=C(NCCCCCCNC(=N)NC(=N)Nc1ccc(Cl)cc1)NC(=N)Nc1ccc(Cl)cc1` [chlorohexidine], the “ciliary activity / ciliary vibration” value was “decrease of the measured ciliary vibration”.
